Test system: K24384-001-R-PDC complex spheroid growth
Test: Anticancer human tumor K24384-001-R-PDC patient-derived pancreatic adenocarcinoma cell line growth inhibition [AhR]
Details: for IC50: curve of first compound; for viability, T/C: stronger effect = lower value
Method in brief: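 Agents were dosed in half-log steps down from roughly clinical Cmax, or from 10 microM where Cmax was unknown, alone and with AhR antagonists. Read-out: percent test/control growth of tumor spheroids containing HUVEC and MSC stromal cells.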

[1] = second compound 0.1 µM, first compound 0.0316 µM
[2] = second compound 0.1 µM, first compound 0.1 µM
[3] = second compound 0.1 µM, first compound 0.316 µM
[4] = second compound 0.1 µM, first compound 1 µM
[5] = second compound 0.1 µM, first compound 3.16 µM
[6] = second compound 0.1 µM, first compound 10 µM
[7] = second compound 0.316 µM, first compound 0.0316 µM
[8] = second compound 0.316 µM, first compound 0.1 µM
[9] = second compound 0.316 µM, first compound 0.316 µM
[10] = second compound 0.316 µM, first compound 1 µM
[11] = second compound 0.316 µM, first compound 3.16 µM
[12] = second compound 0.316 µM, first compound 10 µM
[13] = second compound 1 µM, first compound 0.0316 µM
[14] = second compound 1 µM, first compound 0.1 µM
[15] = second compound 1 µM, first compound 0.316 µM
[16] = second compound 1 µM, first compound 1 µM
[17] = second compound 1 µM, first compound 3.16 µM
[18] = second compound 1 µM, first compound 10 µM
[19] = second compound 3.16 µM, first compound 0.0316 µM
[20] = second compound 3.16 µM, first compound 0.1 µM
[21] = second compound 3.16 µM, first compound 0.316 µM
[22] = second compound 3.16 µM, first compound 1 µM
[23] = second compound 3.16 µM, first compound 3.16 µM
[24] = second compound 3.16 µM, first compound 10 µM
[25] = second compound 10 µM, first compound 0.0316 µM
[26] = second compound 10 µM, first compound 0.1 µM
[27] = second compound 10 µM, first compound 0.316 µM
[28] = second compound 10 µM, first compound 1 µM
[29] = second compound 10 µM, first compound 3.16 µM
[30] = second compound 10 µM, first compound 10 µM
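Wherever viability, T/C is given: percent of DMSO vehicle-treated spheroid viability set as 100%.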

Row | Compound | IC50 (second compound 0.1 µM) | IC50 (second compound 0.316 µM) | IC50 (second compound 1 µM) | IC50 (second compound 3.16 µM) | IC50 (second compound 10 µM) | viability, T/C [1] | viability, T/C [2] | viability, T/C [3] | viability, T/C [4] | viability, T/C [5] | viability, T/C [6] | viability, T/C [7] | viability, T/C [8] | viability, T/C [9] | viability, T/C [10] | viability, T/C [11] | viability, T/C [12] | viability, T/C [13] | viability, T/C [14] | viability, T/C [15] | also measured
1 | CC(C)c1c(-c2ccccc2)nc2c(C#N)c[nH]n2c1=O + Cc1cncc(-c2nc(NCCc3c[nH]c4ccccc34)c3ncn(C(C)C)c3n2)c1 | > 10 µM | > 10 µM | > 10 µM | > 10 µM | < 0.0316 µM | 108% | 110% | 106% | 102% | 85.6% | 85.8% | 104% | 101% | 115% | 95.7% | 87.5% | 77.3% | 108% | 110% | 94.5% | viability, T/C [16]: 95.1%; viability, T/C [17]: 99%; viability, T/C [18]: 69.1%; viability, T/C [19]: 83.7%; viability, T/C [20]: 91.4%; viability, T/C [21]: 82.6%; viability, T/C [22]: 61.9%; viability, T/C [23]: 70.4%; viability, T/C [24]: 77.3%; viability, T/C [25]: 7.78%; viability, T/C [26]: 6.78%; viability, T/C [27]: 7.75%; viability, T/C [28]: 8.55%; viability, T/C [29]: 7.71%; viability, T/C [30]: 10.2%
2 | COc1ccc([C@@H](O)c2cc(-c3ncnc4cc(N5CCOCC5)ccc34)c(F)cc2Cl)nn1 + Cc1cncc(-c2nc(NCCc3c[nH]c4ccccc34)c3ncn(C(C)C)c3n2)c1 | 4.41 µM | 2.82 µM | 2.82 µM | 1.94 µM | < 0.0316 µM | 88% | 93.3% | 93.2% | 68.5% | 57.8% | 38.4% | 109% | 106% | 86.2% | 68.4% | 48% | 36.6% | 84.1% | 94.5% | 118% | viability, T/C [16]: 96.7%; viability, T/C [17]: 44.9%; viability, T/C [18]: 33.9%; viability, T/C [19]: 76.8%; viability, T/C [20]: 98.2%; viability, T/C [21]: 71.1%; viability, T/C [22]: 54.7%; viability, T/C [23]: 50.7%; viability, T/C [24]: 31.9%; viability, T/C [25]: 9.83%; viability, T/C [26]: 8.38%; viability, T/C [27]: 6.49%; viability, T/C [28]: 8.45%; viability, T/C [29]: 9.55%; viability, T/C [30]: 13.7%

From PubChem BioAssay AID1919009 (Molecular Pharmacology Branch, DTP, NCI, 2023)
